Test system: SKOV3 cells (human ovarian carcinoma)
Experiment: SKOV3 subcutaneous xenograft tumor growth inhibition in female SCID mice
Type: in vivo
Details: 21 days, alone, SKOV3 tumors in SCID mice
Description: Female SCID mice were implanted subcutaneously with 5×10^6 SKOV3 cells (human ovarian carcinoma). When the tumor volume reached 300-400 mm^3, mice were block randomized to different treatment groups (n=8 mice/group). Mice received AKT inhibitor, Compound B (in this assay, Compound B, is used in the form of the free or unsalted compound), at 10 or 30 mg/kg, once daily (SID) for 21 days in 20% PEG-400, 1% DMSO in water. Compound A (in this assay, Compound A, is used in the form of monohydrochloride salt) was administered at 100 mg/kg, twice/day (BID) for 21 days either alone or in combination with Compound B. Mice were weighed and tumors measured by calipers twice weekly. Tumor volumes were calculated using the formula: tumor volume=(Length×Width^2)/2. The percentage of tumor growth inhibition was calculated on each day of tumor measurement using the formula: 100×[1-(average growth of the compound-treated tumors/average growth of vehicle-treated control tumors)].

| Compound | inhibition of tumor growth compared to vehicle treated mice (Compound A (monohydrochloride salt) 100 mg/kg, twice daily) | inhibition of tumor growth compared to vehicle treated mice (Compound B (free compound) 10 mg/kg, once daily) | inhibition of tumor growth compared to vehicle treated mice (Compound B (free compound) 30 mg/kg, once daily) |
| --- | --- | --- | --- |
| Cc1ccc(Nc2nccc(N(C)c3ccc4c(C)n(C)nc4c3)n2)cc1S(N)(=O)=O [Compound A, 5-[[4-[(2,3-dimethyl-2H-indazol-6-yl)methylamino]-2-pyrimidinyl]amino]-2-methylbenzenesulfonamide, reference compound] | 47% |  |  |
| Cn1ncc(Cl)c1-c1cc(C(=O)N[C@H](CN)Cc2ccc(F)c(F)c2)oc1Cl [Compound B, N-{(1S)-2-amino-1-[(3,4-difluorophenyl)methyl]ethyl}-5-chloro-4-(4-chloro-1-methyl-1H-pyrazol-5-yl)-2-furancarboxamide] |  | 67% | 86% |

Reference: patent US20150272950A1, “COMBINATION” (GLAXOSMITHKLINE LLC, priority 2012, published 2015)
